Reference: publication PMC12376128, “In vitro and In Vivo Drug Metabolism Analysis of BPI-460372 - A Covalent TEAD1/3/4 Inhibitor” (Current Drug Metabolism, 2025)

What was measured:
CYP2B6 = target: T1, CYP2B6 (Homo sapiens, UniProt P20813); assay: Metabolic stability in HLMs with or without specific CYP inhibitor (ticlopidine 20 µM); assay type: in vitro ADME; details: HLMs 1 mg protein/mL, substrate 1 μM
T1 construct: HLMs (1 mg protein·mL^-1); tissue BioIVT; host or cells: pooled human liver microsomes
T1 sequence (P20813 1-491): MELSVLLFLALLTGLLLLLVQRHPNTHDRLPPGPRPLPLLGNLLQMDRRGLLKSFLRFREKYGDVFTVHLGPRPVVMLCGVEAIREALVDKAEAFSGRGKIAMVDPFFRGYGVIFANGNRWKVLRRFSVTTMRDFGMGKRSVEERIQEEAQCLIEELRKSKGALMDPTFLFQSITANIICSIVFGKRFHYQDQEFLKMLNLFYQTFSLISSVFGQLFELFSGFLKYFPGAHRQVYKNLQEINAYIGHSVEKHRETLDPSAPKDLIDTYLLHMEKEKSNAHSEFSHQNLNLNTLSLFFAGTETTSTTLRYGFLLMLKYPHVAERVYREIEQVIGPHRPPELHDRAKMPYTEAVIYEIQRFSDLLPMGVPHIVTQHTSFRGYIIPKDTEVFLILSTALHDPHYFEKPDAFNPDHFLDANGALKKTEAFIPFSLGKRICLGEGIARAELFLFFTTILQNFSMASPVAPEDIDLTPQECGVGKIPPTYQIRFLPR
Experimental: (§1) Before starting the experiments, the HLMs were thawed gently on ice. Metabolic stability incubations were performed at 37 °C. […] The incubation process started with the addition of NADPH (1 mM final concentration) after a 5-minute preincubation period. The chemical inhibitors were as follows: a-naphthoflavone (2 µM) for CYP1A2, ticlopidine (20 µM) for 2B6, quercetin (20 µM) for CYP2C8, sulfaphenazole (20 µM) for CYP2C9, ticlopidine (200 µM) for CYP2C19, quinidine (20 µM) for CYP2D6, and ketoconazole (20 µM) for CYP3A [9]. Aliquots were maintained in acetonitrile containing internal standard (IS) at various time points, such as 0 min, 5 min, 10 min, 20 min, 30 min, and 60 min. All incubations were performed in triplicate, and the concentration in the supernatant was determined by liquid chromatography-tandem mass spectrometry (LC-MS/MS).
(§2) The elimination rate constant k (min^-1) was obtained by linear regression from the natural logarithm of the […] of the parent drug and the incubation time. The inhibition rate was calculated using equation 1 [10]: […]

CYP2C8 = assay: Metabolic stability in HLMs with or without specific CYP inhibitor (quercetin); assay type: in vitro ADME, human; details: HLMs 1 mg protein/mL, substrate 1 μM, quercetin 20 µM
Experimental: (§3) Before starting the experiments, the HLMs were thawed gently on ice. Metabolic stability incubations were performed at 37 °C. The incubations contained 100 mM phosphate buffer saline (PBS, pH 7.4), HLMs (1 mg protein·mL^-1), dimethyl sulfoxide (DMSO, blank control) or a selective CYP inhibitor, and BPI-460372 or positive control substrates (final incubation concentration, 1 μM). The incubation process started with the addition of NADPH (1 mM final concentration) after a 5-minute preincubation period. The chemical inhibitors were as follows: a-naphthoflavone (2 µM) for CYP1A2, ticlopidine (20 µM) for 2B6, quercetin (20 µM) for CYP2C8, sulfaphenazole (20 µM) for CYP2C9, ticlopidine (200 µM) for CYP2C19, quinidine (20 µM) for CYP2D6, and ketoconazole (20 µM) for CYP3A [9]. Aliquots were maintained in acetonitrile containing internal standard (IS) at various time points, such as 0 min, 5 min, 10 min, 20 min, 30 min, and 60 min. All incubations were performed in triplicate, and the concentration in the supernatant was determined by liquid chromatography-tandem mass spectrometry (LC-MS/MS).
as §2

CYP2C19 = assay: Metabolic stability in HLMs with or without specific CYP inhibitor (ticlopidine 200 µM); assay type: in vitro ADME, human; details: HLMs 1 mg protein/mL, substrate 1 μM
Experimental: as §1, §2

CYP3A4 = assay: Metabolic stability in HLMs with or without specific CYP inhibitor (ketoconazole); assay type: in vitro ADME, human; details: HLMs 1 mg protein/mL, substrate 1 μM, ketoconazole 20 µM
Experimental: as §3, §2

mouse hepatocytes = assay: Metabolism and metabolite formation in hepatocytes; assay type: in vitro ADME, ICR mouse; details: ICR mouse hepatocytes, 10 µM BPI-460372, 4 h incubation
Source text: All the samples were duplicates.

Stability in plasma [1] = assay type: in vitro ADME; details: mouse plasma, 37°C, 4 h
Stability in plasma [2] = assay type: in vitro ADME; details: rat plasma, 37°C, 4 h
TEAD proteins = system: TEAD proteins; set-up: method as in doi:10.1158/1538-7445.AM2023-501; details: cited from earlier work
CYP1A2 = target: T2, CYP1A2 (Homo sapiens, UniProt P05177); assay: Metabolic stability in HLMs with or without specific CYP inhibitor (α-naphthoflavone); assay type: in vitro ADME; set-up: HLMs (1 mg protein·mL^-1); tissue BioIVT; host or cells: pooled human liver microsomes; details: HLMs 1 mg protein/mL, substrate 1 μM, α-naphthoflavone 2 µM
T2 sequence (P05177 1-516): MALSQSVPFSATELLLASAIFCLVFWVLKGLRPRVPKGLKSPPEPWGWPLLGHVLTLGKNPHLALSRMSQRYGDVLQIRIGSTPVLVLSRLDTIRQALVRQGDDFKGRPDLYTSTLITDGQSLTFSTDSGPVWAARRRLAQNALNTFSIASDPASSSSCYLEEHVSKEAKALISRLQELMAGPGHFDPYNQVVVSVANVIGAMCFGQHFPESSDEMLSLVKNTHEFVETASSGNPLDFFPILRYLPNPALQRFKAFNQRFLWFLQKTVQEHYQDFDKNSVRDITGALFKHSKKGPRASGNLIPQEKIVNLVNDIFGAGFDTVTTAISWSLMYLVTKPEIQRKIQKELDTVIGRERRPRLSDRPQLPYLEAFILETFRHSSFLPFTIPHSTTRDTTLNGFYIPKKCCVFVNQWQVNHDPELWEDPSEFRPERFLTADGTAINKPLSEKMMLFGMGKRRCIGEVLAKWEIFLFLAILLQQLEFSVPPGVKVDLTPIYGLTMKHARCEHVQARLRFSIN
Experimental: as §3, §2

[3] = system: cysteine S-conjugate β-lyase; assay: Effect of cysteine S-conjugate β-lyase inhibitor AOAA on the metabolism of BPI-460372 (rat urine); details: 20 mg/kg BPI-460372 + 100 mg/kg AOAA, once daily 21 days, urine 0-48 h on day 21
Experimental: To investigate the effect of cysteine S-conjugate β-lyase on the metabolism of BPI-460372, SD rats were treated with 20 mg/kg BPI-460372 alone (n=3, male) or 20 mg/kg BPI-460372 coadministration with 100 mg/kg cysteine S-conjugate β-lyase inhibitor AOAA (n=3, male), once daily for 21 consecutive days. On day 21, urine samples were collected at 0-8, 8-24 and 24-48 h. The same percentage of urine samples from each rat was taken at these three time intervals and mixed. The samples were analyzed by LC-MS/MS and then semi-quantified using the peak area ratio of analyte versus IS.

Compound: C=C(F)C(=O)N1CC(n2c(=O)n(-c3ccc(C(F)(F)F)cc3)c3nccnc32)C1 [BPI-460372]
- Inhibition Rate (CYP2B6): -11.5%
- Inhibition Rate (CYP2C8): 53.9%
- Inhibition Rate (CYP2C19): -4.2%
- Inhibition Rate (CYP3A4): 9.1%
- UV (314 nm) Peak Areas Relative Abundance (mouse hepatocytes): 32.74%
- Stability in plasma (Stability in plasma [1]): stable
- Stability in plasma (Stability in plasma [2]): stable
- Covalent binding to TEAD1/3/4 (TEAD proteins; 2-fluoro acrylamide warhead): covalently bind to the Cys-368 residue
- Off-target covalent binding (TEAD proteins): without significant off-target covalent binding affinity
- Inhibition Rate (CYP1A2): 32.7%
- Area ratio in rat urine, mean (%CV) [3]: 1.48 (69)
